Assay results as given in patent publication US20080269060A1, “Herbicidal Formulation” (priority 2004, published 2008).
Values after ≈ are worked out from the molar mass of the structure shown. Like-named read-outs stand apart in the source and are kept apart here.

Tests used:
[1] = Storage stability of 1% mesotrione / isoxaflutole salt mixtures, 8 weeks at +45° C. vs −18° C.; assay type: physicochemical; set-up: Start: unit not given here; conditions: for 45° C. / % decomposition: 8 weeks at 45° C.; for Start: held at −18° C. 8 weeks
Description: Millbase preparations of mesotrione and isoxaflutole were made using the following method:
The sample is placed in a round bottomed flask (˜140 mls) and mixed at 150 rpm for 15 minutes until homogeneous. An equal volume of glass beads is added to the flask (0.8-1.0 mm diameter) and the sample is milled at 650 rpm of 60 minutes. The particle size was checked. Further milling of the sample continued (60 minutes for mesotrione and 150 minutes for isoxaflutole). The particle size was checked again and all particles met the specification of 5 microns (D(4,3) volume weighted mean diameter).
The samples were extracted under vacuum through a sieve to disengage the beads from the millbases. The two millbases shown below were checked for AI content and used in the preparation of the salt mixtures. The final mixtures (see below) were then placed on storage at −18° C. (controlled initial sample) and +45° C. for 8 weeks. Analysis was then carried out using validated methods. The salts used were: glyphosate potassium aqueous solution; diquat dibromide aqueous solution; paraquat dichloride aqueous solution.
Analytical Results: storage time was 8 weeks; sample denoted as “start” was held at −18° C. for the same period.

[2] = Amount of mesotrione in solution by UV-visible spectrophotometry in aqueous electrolyte; assay type: physicochemical; conditions: pH approximately 5
Description: Eight aqueous millbase formulations were made comprising mesotrione millbase (12 g/L or 10,000 approximately) and varying amounts of glyphosate-potassium, ammonium sulphate, and sodium chloride. All samples were held at a pH of approximately 5 by using phosphoric acid for adjustment. The amount of mesotrione in solution was determined using UV-visible spectrophotometry, since the aqueous solubility of mesotrione is related to the expected rate of decomposition of this active ingredient in such systems.

[3] = water, cited from earlier work
[4] = 1% active and diquat pH ~4, Salt % 7.50 (as diquat anion)
[5] = 1% active and diquat pH ~4, Salt % 15.00 (as diquat anion)
[6] = 1% active and diquat pH ~4, Salt % 22.50 (as diquat anion)
[7] = 1% active and paraquat pH ~4, Salt % 10.00 (as paraquat anion)
[8] = 1% active and paraquat pH ~4, Salt % 20.00 (as paraquat anion)
[9] = 1% active and paraquat pH ~4, Salt % 30.00 (as paraquat anion)
[10] = 1% active, no salt, adjusted pH 2
[11] = 1% isoxaflutole unadjusted pH 7.0, no salt
[12] = 1% active and glyphosate pH ~5, Salt % 15.00 (as glyphosate acid equivalent)
[13] = 1% active and glyphosate pH ~5, Salt % 45.00 (as glyphosate acid equivalent)
[14] = 1% mesotrione not adjusted pH 5 (pH ~4.5), no salt

CS(=O)(=O)c1cc(C(F)(F)F)ccc1C(=O)c1cnoc1C1CC1 [Isoxaflutole, 5-cyclopropyl-4-(2-methylsulfonyl-4-trifluoromethyl)benzoylisoxazole]
45° C. [1, 4]: 0.94 | % decomposition [1, 4]: 11.30% | Start [1, 4]: 1.06 | 45° C. [1, 5]: 0.94 | % decomposition [1, 5]: 9.50% | Start [1, 5]: 1.04 | 45° C. [1, 6]: 0.87 | % decomposition [1, 6]: 16.50% | Start [1, 6]: 1.04 | 45° C. [1, 7]: 0.99 | % decomposition [1, 7]: 6.00% | Start [1, 7]: 1.05 | 45° C. [1, 8]: 0.90 | % decomposition [1, 8]: 12.00% | Start [1, 8]: 1.02 | 45° C. [1, 9]: 0.80 | % decomposition [1, 9]: 7.00% | Start [1, 9]: 0.86 | 45° C. [1, 10]: 1.02 | % decomposition [1, 10]: nil | Start [1, 10]: 0.98 | 45° C. [1, 11]: 0.85 | % decomposition [1, 11]: 17.00% | Start [1, 11]: 1.06

CS(=O)(=O)c1ccc(C(=O)C2C(=O)CCCC2=O)c([N+](=O)[O-])c1 [Mesotrione, 2-(4-methylsulphonyl-2-nitrobenzoyl)cyclohexane-1,3-dione]
45° C. [1, 4]: 0.96 | % decomposition [1, 4]: 9.43% | Start [1, 4]: 1.06 | 45° C. [1, 5]: 0.93 | % decomposition [1, 5]: 13.08% | Start [1, 5]: 1.07 | 45° C. [1, 6]: 0.86 | % decomposition [1, 6]: 21.10% | Start [1, 6]: 1.09 | 45° C. [1, 12]: 0.86 | % decomposition [1, 12]: 18.1% | Start [1, 12]: 1.05 | 45° C. [1, 13]: 0.80 | % decomposition [1, 13]: 14.9% | Start [1, 13]: 0.94 | 45° C. [1, 7]: 0.96 | % decomposition [1, 7]: 12.73% | Start [1, 7]: 1.10 | 45° C. [1, 8]: 0.98 | % decomposition [1, 8]: 12.50% | Start [1, 8]: 1.12 | 45° C. [1, 9]: 0.90 | % decomposition [1, 9]: 18.18% | Start [1, 9]: 1.10 | 45° C. [1, 10]: 0.96 | % decomposition [1, 10]: 10.28% | Start [1, 10]: 1.07 | 45° C. [1, 14]: 0.83 | % decomposition [1, 14]: 34.65% | Start [1, 14]: 1.27 | Concentration of mesotrione in solution ([2]; Ammonium sulphate solution 100 g per litre): 625 ppm | Concentration of mesotrione in solution ([2]; Ammonium sulphate solution 200 g per litre): 504 ppm | Concentration of mesotrione in solution ([2]; Ammonium sulphate solution 300 g per litre): 391 ppm | Concentration of mesotrione in solution ([2]; Ammonium sulphate solution 400 g per litre): 271 ppm | Concentration of mesotrione in solution ([2]; Ammonium sulphate solution 500 g per litre): 263 ppm | Concentration of mesotrione in solution ([2]; Potassium glyphosate 100 g per litre): 1220 ppm | Concentration of mesotrione in solution ([2]; Potassium glyphosate 200 g per litre): 700 ppm | Concentration of mesotrione in solution ([2]; Potassium glyphosate 300 g per litre): 480 ppm | Concentration of mesotrione in solution ([2]; Potassium glyphosate 360 g per litre): 290 ppm | Concentration of mesotrione in solution ([2]; Potassium glyphosate 400 g per litre): 210 ppm | Concentration of mesotrione in solution ([2]; Potassium glyphosate 500 g per litre): 180 ppm | Concentration of mesotrione in solution ([2]; Potassium glyphosate 600 g per litre): 170 ppm | Concentration of mesotrione in solution ([2]; Potassium glyphosate 640 g per litre): 160 ppm | Concentration of mesotrione in solution ([2]; Sodium Chloride 50 g per litre): 605 ppm | Concentration of mesotrione in solution ([2]; Sodium Chloride 105 g per litre): 549 ppm | Concentration of mesotrione in solution ([2]; Sodium Chloride 165 g per litre): 510 ppm | Concentration of mesotrione in solution ([2]; Sodium Chloride 230 g per litre): 479 ppm | Concentration of mesotrione in solution ([2]; Sodium Chloride 300 g per litre): 443 ppm | Concentration of mesotrione in solution ([2]; electrolyte: None): 4700 ppm | solubility ([3]; pH 4.8, 20° C.): 2.2 mg/mL (≈ 6.48 mM) | solubility ([3]; pH 6.9, 20° C.): 15 mg/mL (≈ 44.2 mM) | solubility ([3]; pH 9, 20° C.): 22 mg/mL (≈ 64.8 mM)
